Experimental data from patent publication US5672715A, “Herbicidal substituted 3-aryl-pyrazoles” (Monsanto Company, priority 1995, dated 1997).
Like-named read-outs stand apart in the source and are kept apart here.

Tests used:
Assay type in all cases: in vivo
Yellow Foxtail [1] = assay: pre-emergence herbicide test; conditions: Setaria, read-out: % plant inhibition; for inhibition at 7.95803 g/ha: 0.0071 lb/A; for inhibition at 40.0143 g/ha: 0.0357 lb/A; for inhibition at 200.072 g/ha: 0.1785 lb/A; for inhibition at 280.212 g/ha: 0.25 lb/A; for inhibition at 1000.92 g/ha: 0.893 lb/A
In short: (§1)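 Test compound, dissolved or suspended in acetone or water, is applied to a topsoil layer covering freshly sown seeds. Pans stay in a greenhouse with watering from below, and plants are rated for percent inhibition approximately two weeks after treatment.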

Rice = assay: pre-emergence herbicide test; conditions: Oryza sativa, read-out: % plant inhibition; for inhibition at 7.95803 g/ha: 0.0071 lb/A; for inhibition at 40.0143 g/ha: 0.0357 lb/A; for inhibition at 200.072 g/ha: 0.1785 lb/A; for inhibition at 1000.92 g/ha: 0.893 lb/A
In short: as §1

Velvetleaf [2] = assay: pre-emergence herbicide test; conditions: Abutilon theophrasti, pre-emergence, read-out: % plant inhibition; for inhibition at 7.95803 g/ha: 0.0071 lb/A; for inhibition at 40.0143 g/ha: 0.0357 lb/A; for inhibition at 200.072 g/ha: 0.1785 lb/A; for inhibition at 280.212 g/ha: 0.25 lb/A; for inhibition at 1000.92 g/ha: 0.893 lb/A
In short: as §1

Wheat = assay: post-emergence herbicide test; conditions: Triticum aestivum, post-emergence, read-out: % plant inhibition; for inhibition at 7.95803 g/ha: 0.0071 lb/A; for inhibition at 40.0143 g/ha: 0.0357 lb/A; for inhibition at 200.072 g/ha: 0.1785 lb/A; for inhibition at 1000.92 g/ha: 0.893 lb/A
In short: (§2)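 Activity is given as percent inhibition of each species following foliar application. Pots were sprayed individually in a chamber once plants reached two to three weeks.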

Blackgrass = assay: post-emergence herbicide test; conditions: Alopecurus myosuroides, post-emergence, read-out: % plant inhibition; for inhibition at 7.95803 g/ha: 0.0071 lb/A; for inhibition at 40.0143 g/ha: 0.0357 lb/A; for inhibition at 200.072 g/ha: 0.1785 lb/A; for inhibition at 1000.92 g/ha: 0.893 lb/A
In short: as §2

Bedstraw Catchweed = assay: post-emergence herbicide test; conditions: Galium aparine, post-emergence, read-out: % plant inhibition; for inhibition at 7.95803 g/ha: 0.0071 lb/A; for inhibition at 40.0143 g/ha: 0.0357 lb/A; for inhibition at 200.072 g/ha: 0.1785 lb/A; for inhibition at 1000.92 g/ha: 0.893 lb/A
In short: as §2

Yellow Foxtail [3] = assay: post-emergence herbicide test; conditions: Setaria, read-out: % plant inhibition; for inhibition at 7.95803 g/ha: 0.0071 lb/A; for inhibition at 40.0143 g/ha: 0.0357 lb/A; for inhibition at 200.072 g/ha: 0.1785 lb/A; for inhibition at 1000.92 g/ha: 0.893 lb/A
In short: as §2

Common Chickweed = assay: post-emergence herbicide test; conditions: post-emergence, read-out: % plant inhibition; for inhibition at 7.95803 g/ha: 0.0071 lb/A; for inhibition at 40.0143 g/ha: 0.0357 lb/A; for inhibition at 200.072 g/ha: 0.1785 lb/A; for inhibition at 1000.92 g/ha: 0.893 lb/A
In short: as §2

Cocklebur = assay: post-emergence herbicide test; conditions: Xanthium strumarium, post-emergence, read-out: % plant inhibition; for inhibition at 7.95803 g/ha: 0.0071 lb/A; for inhibition at 40.0143 g/ha: 0.0357 lb/A; for inhibition at 200.072 g/ha: 0.1785 lb/A; for inhibition at 1000.92 g/ha: 0.893 lb/A
In short: as §2

Barnyardgrass = assay: post-emergence herbicide test; conditions: Echinochloa crus-galli, post-emergence, read-out: % plant inhibition; for inhibition at 7.95803 g/ha: 0.0071 lb/A; for inhibition at 40.0143 g/ha: 0.0357 lb/A; for inhibition at 200.072 g/ha: 0.1785 lb/A; for inhibition at 1000.92 g/ha: 0.893 lb/A
In short: as §2

Morning Glory = assay: post-emergence herbicide test; conditions: Ipomoea, post-emergence, read-out: % plant inhibition; for inhibition at 7.95803 g/ha: 0.0071 lb/A; for inhibition at 40.0143 g/ha: 0.0357 lb/A; for inhibition at 200.072 g/ha: 0.1785 lb/A; for inhibition at 1000.92 g/ha: 0.893 lb/A
In short: as §2

Corn = assay: post-emergence herbicide test; conditions: Zea mays, post-emergence, read-out: % plant inhibition; for inhibition at 7.95803 g/ha: 0.0071 lb/A; for inhibition at 40.0143 g/ha: 0.0357 lb/A; for inhibition at 200.072 g/ha: 0.1785 lb/A; for inhibition at 1000.92 g/ha: 0.893 lb/A
In short: as §2

Velvetleaf [4] = assay: post-emergence herbicide test; conditions: Abutilon theophrasti, post-emergence, read-out: % plant inhibition; for inhibition at 7.95803 g/ha: 0.0071 lb/A; for inhibition at 40.0143 g/ha: 0.0357 lb/A; for inhibition at 200.072 g/ha: 0.1785 lb/A; for inhibition at 1000.92 g/ha: 0.893 lb/A
In short: as §2

Soybean = assay: post-emergence herbicide test; conditions: Glycine max, post-emergence, read-out: % plant inhibition; for inhibition at 7.95803 g/ha: 0.0071 lb/A; for inhibition at 40.0143 g/ha: 0.0357 lb/A; for inhibition at 200.072 g/ha: 0.1785 lb/A; for inhibition at 1000.92 g/ha: 0.893 lb/A
In short: as §2

Yellow Nutsedge = assay: post-emergence herbicide test; conditions: Cyperus, read-out: % plant inhibition; for inhibition at 7.95803 g/ha: 0.0071 lb/A; for inhibition at 40.0143 g/ha: 0.0357 lb/A; for inhibition at 200.072 g/ha: 0.1785 lb/A; for inhibition at 1000.92 g/ha: 0.893 lb/A
In short: as §2

## COc1cc(-c2nn(C)c(C(F)(F)F)c2C)c(F)cc1Cl [Compound 37]
Yellow Foxtail [1]
  inhibition at 7.95803 g/ha: 55%
  inhibition at 40.0143 g/ha: 95%
  inhibition at 200.072 g/ha: 100%
  inhibition at 280.212 g/ha: 100%
  inhibition at 1000.92 g/ha: 100%
Rice
  inhibition at 7.95803 g/ha: 25%
  inhibition at 40.0143 g/ha: 0%
  inhibition at 200.072 g/ha: 85%
  inhibition at 1000.92 g/ha: 100%
Velvetleaf [2]
  inhibition at 7.95803 g/ha: 98%
  inhibition at 40.0143 g/ha: 100%
  inhibition at 200.072 g/ha: 100%
  inhibition at 280.212 g/ha: 100%
  inhibition at 1000.92 g/ha: 100%
Wheat
  inhibition at 7.95803 g/ha: 5%
  inhibition at 40.0143 g/ha: 0%
  inhibition at 200.072 g/ha: 10%
  inhibition at 1000.92 g/ha: 30%
Blackgrass; Table 4a
  inhibition at 7.95803 g/ha: 0%
  inhibition at 40.0143 g/ha: 0%
  inhibition at 200.072 g/ha: 10%
  inhibition at 1000.92 g/ha: 15%
Blackgrass; Table 5a
  inhibition at 7.95803 g/ha: 10%
  inhibition at 40.0143 g/ha: 25%
  inhibition at 200.072 g/ha: 65%
  inhibition at 1000.92 g/ha: 85%
Bedstraw Catchweed
  inhibition at 7.95803 g/ha: 20%
  inhibition at 40.0143 g/ha: 35%
  inhibition at 200.072 g/ha: 75%
  inhibition at 1000.92 g/ha: 90%
Yellow Foxtail [3]
  inhibition at 7.95803 g/ha: 0%
  inhibition at 40.0143 g/ha: 20%
  inhibition at 200.072 g/ha: 65%
  inhibition at 1000.92 g/ha: 65%
Common Chickweed
  inhibition at 7.95803 g/ha: 0%
  inhibition at 40.0143 g/ha: 40%
  inhibition at 200.072 g/ha: 70%
  inhibition at 1000.92 g/ha: 80%
Cocklebur
  inhibition at 7.95803 g/ha: 5%
  inhibition at 40.0143 g/ha: 40%
  inhibition at 200.072 g/ha: 55%
  inhibition at 1000.92 g/ha: 80%
Barnyardgrass
  inhibition at 7.95803 g/ha: 0%
  inhibition at 40.0143 g/ha: 15%
  inhibition at 200.072 g/ha: 65%
  inhibition at 1000.92 g/ha: 45%
Morning Glory
  inhibition at 7.95803 g/ha: 0%
  inhibition at 40.0143 g/ha: 45%
  inhibition at 200.072 g/ha: 95%
  inhibition at 1000.92 g/ha: 100%
Corn
  inhibition at 7.95803 g/ha: 5%
  inhibition at 40.0143 g/ha: 10%
  inhibition at 200.072 g/ha: 50%
  inhibition at 1000.92 g/ha: 100%
Velvetleaf [4]
  inhibition at 7.95803 g/ha: 25%
  inhibition at 40.0143 g/ha: 35%
  inhibition at 200.072 g/ha: 50%
  inhibition at 1000.92 g/ha: 100%
Soybean
  inhibition at 7.95803 g/ha: 10%
  inhibition at 40.0143 g/ha: 40%
  inhibition at 200.072 g/ha: 40%
  inhibition at 1000.92 g/ha: 60%
Yellow Nutsedge
  inhibition at 7.95803 g/ha: 0%
  inhibition at 40.0143 g/ha: 10%
  inhibition at 200.072 g/ha: 15%
  inhibition at 1000.92 g/ha: 40%

## Cc1c(-c2cc(OCC(=O)OC(C)C)c(Cl)cc2F)nn(C)c1C(F)(F)F [Compound 38]
Yellow Foxtail [1]
  inhibition at 7.95803 g/ha: 0%
  inhibition at 40.0143 g/ha: 0%
  inhibition at 200.072 g/ha: 25%
  inhibition at 280.212 g/ha: 40%
  inhibition at 1000.92 g/ha: 65%
Rice
  inhibition at 7.95803 g/ha: 0%
  inhibition at 40.0143 g/ha: 0%
  inhibition at 200.072 g/ha: 0%
  inhibition at 1000.92 g/ha: 40%
Velvetleaf [2]
  inhibition at 7.95803 g/ha: 100%
  inhibition at 40.0143 g/ha: 80%
  inhibition at 200.072 g/ha: 98%
  inhibition at 280.212 g/ha: 100%
  inhibition at 1000.92 g/ha: 100%
Wheat
  inhibition at 7.95803 g/ha: 10%
  inhibition at 40.0143 g/ha: 10%
  inhibition at 200.072 g/ha: 10%
  inhibition at 1000.92 g/ha: 10%
Blackgrass; Table 4a
  inhibition at 7.95803 g/ha: 0%
  inhibition at 40.0143 g/ha: 0%
  inhibition at 200.072 g/ha: 10%
  inhibition at 1000.92 g/ha: 0%
Blackgrass; Table 5a
  inhibition at 7.95803 g/ha: 0%
  inhibition at 40.0143 g/ha: 25%
  inhibition at 200.072 g/ha: 30%
  inhibition at 1000.92 g/ha: 5%
Bedstraw Catchweed
  inhibition at 7.95803 g/ha: 35%
  inhibition at 40.0143 g/ha: 85%
  inhibition at 200.072 g/ha: 90%
  inhibition at 1000.92 g/ha: 85%
Yellow Foxtail [3]
  inhibition at 7.95803 g/ha: 0%
  inhibition at 40.0143 g/ha: 35%
  inhibition at 200.072 g/ha: 10%
  inhibition at 1000.92 g/ha: 15%
Common Chickweed
  inhibition at 7.95803 g/ha: 65%
  inhibition at 40.0143 g/ha: 75%
  inhibition at 200.072 g/ha: 95%
  inhibition at 1000.92 g/ha: 98%
Cocklebur
  inhibition at 7.95803 g/ha: 80%
  inhibition at 40.0143 g/ha: 80%
  inhibition at 200.072 g/ha: 80%
  inhibition at 1000.92 g/ha: 100%
Cocklebur; 0.25 lb/A
  inhibition at 280.212 g/ha: 100%
Barnyardgrass
  inhibition at 7.95803 g/ha: 10%
  inhibition at 40.0143 g/ha: 10%
  inhibition at 200.072 g/ha: 15%
  inhibition at 1000.92 g/ha: 15%
Morning Glory
  inhibition at 7.95803 g/ha: 80%
  inhibition at 40.0143 g/ha: 100%
  inhibition at 200.072 g/ha: 100%
  inhibition at 1000.92 g/ha: 100%
Morning Glory; 0.25 lb/A
  inhibition at 280.212 g/ha: 95%
Corn
  inhibition at 7.95803 g/ha: 5%
  inhibition at 40.0143 g/ha: 10%
  inhibition at 200.072 g/ha: 25%
  inhibition at 1000.92 g/ha: 25%
Corn; 0.25 lb/A
  inhibition at 280.212 g/ha: 10%
Velvetleaf [4]
  inhibition at 7.95803 g/ha: 65%
  inhibition at 40.0143 g/ha: 100%
  inhibition at 200.072 g/ha: 100%
  inhibition at 1000.92 g/ha: 100%
Velvetleaf [4]; 0.25 lb/A
  inhibition at 280.212 g/ha: 100%
Soybean
  inhibition at 7.95803 g/ha: 10%
  inhibition at 40.0143 g/ha: 20%
  inhibition at 200.072 g/ha: 30%
  inhibition at 1000.92 g/ha: 25%
Soybean; 0.25 lb/A
  inhibition at 280.212 g/ha: 15%
Yellow Nutsedge
  inhibition at 7.95803 g/ha: 35%
  inhibition at 40.0143 g/ha: 25%
  inhibition at 200.072 g/ha: 25%
  inhibition at 1000.92 g/ha: 25%
